Laboratory results published in the supplement of paper PMC4314810.
± gives the standard deviation of the averaged measurements.

What follows are sequences tested on MCF7 (assay: HRG-induced Akt activation (dPAkt = log2 pAkt/Akt HRG-stimulated minus log2 pAkt/Akt basal) (log2 ratio difference); higher = stronger HRG-induced Akt(T308) phosphorylation). Conditions: miRNA mimic concentration 10 nM; time after transfection 72 h; heregulin 10 ng/ml; stimulation time 1 h.
How it was run: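 MCF7 cells were plated […] in 96-well plates and transfected in two biological replicates with a library of 879 miRNA mimics (10 nM final) using Lipofectamine RNAiMax; 72 h later they were stimulated for 1 h with 10 ng/ml heregulin-beta1 or left unstimulated. After fixation in 4% PFA, phospho-Akt(T308) and total Akt were measured by In-Cell Western on an Odyssey, with signals corrected for column-wise fixation decay. Heregulin-induced Akt activation is the stimulated minus unstimulated value of the log ratio of phospho-Akt to total Akt, averaged over replicates. That log ratio is log2(pAkt/Akt).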

**Q.** Which “HRG-induced Akt activation (log2)” value does the source give for AGAGGCUGGCCGUGAUGAAUUC here?
**A.** The value was 1.48 ± 0.024.

**Q.** Which “HRG-induced Akt activation (log2)” value does the source give for AGGGACGGGACGCGGUGCAGUG here?
**A.** Its value is 1.15 ± 0.12.

**Q.** With UUCACAGUGGCUAAGUUCUGC as the sequence, how does the “HRG-induced Akt activation (log2)” value read?
**A.** Its value is 1.73 ± 0.061.

**Q.** How did the “HRG-induced Akt activation (log2)” value turn out when AUGAUCCAGGAACCUGCCUCU was run?
**A.** Its value is 2.49 ± 0.056.

**Q.** With ACUCAAACUGUGGGGGCACU as the sequence, how does the “HRG-induced Akt activation (log2)” value read?
**A.** The value was 0.915 ± 0.061.

**Q.** GAAGUUGUUCGUGGUGGAUUCG was tested. Which “HRG-induced Akt activation (log2)” value did it give?
**A.** The value was 2.11 ± 0.022.

**Q.** With UAUGUAACAUGGUCCACUAACU as the sequence, how does the “HRG-induced Akt activation (log2)” value read?
**A.** The value was 1.97 ± 0.17.

**Q.** How did the “HRG-induced Akt activation (log2)” value turn out when GAGGGUCUUGGGAGGGAUGUGAC was run?
**A.** Its value is 1.44 ± 0.081.

**Q.** Which “HRG-induced Akt activation (log2)” value does the source give for CUCCUACAUAUUAGCAUUAACA here?
**A.** The value was 1.12 ± 0.31.

**Q.** For CCCUGUGCCCGGCCCACUUCUG, which “HRG-induced Akt activation (log2)” value is on record?
**A.** The value was 1.19 ± 0.05.

**Q.** With AUAAGACGAACAAAAGGUUUGU as the sequence, how does the “HRG-induced Akt activation (log2)” value read?
**A.** The value was 1.75 ± 0.072.

**Q.** Which “HRG-induced Akt activation (log2)” value does the source give for ACCCUAUCAAUAUUGUCUCUGC here?
**A.** Its value is 1.33 ± 0.23.

**Q.** GCAUGGGUGGUUCAGUGG was tested. Which “HRG-induced Akt activation (log2)” value did it give?
**A.** The value was 1.52 ± 0.11.

**Q.** How did the “HRG-induced Akt activation (log2)” value turn out when AGACCCUGGUCUGCACUCUAUC was run?
**A.** The value was 1.82 ± 0.41.

**Q.** With UUGUGUCAAUAUGCGAUGAUGU as the sequence, how does the “HRG-induced Akt activation (log2)” value read?
**A.** The value was 1.768 ± 0.00038.

**Q.** With UUUAGAGACGGGGUCUUGCUCU as the sequence, how does the “HRG-induced Akt activation (log2)” value read?
**A.** Its value is 1.54 ± 0.51.

**Q.** AGACCUGGCCCAGACCUCAGC was tested. Which “HRG-induced Akt activation (log2)” value did it give?
**A.** Its value is 1.51 ± 0.39.

**Q.** How did the “HRG-induced Akt activation (log2)” value turn out when ACUGCAUUAUGAGCACUUAAAG was run?
**A.** The value was 1.66 ± 0.41.

**Q.** How did the “HRG-induced Akt activation (log2)” value turn out when GCUGACUCCUAGUCCAGGGCUC was run?
**A.** Its value is 1.53 ± 0.099.

**Q.** AGAAUUGUGGCUGGACAUCUGU was tested. Which “HRG-induced Akt activation (log2)” value did it give?
**A.** The value was 1.55 ± 0.022.

**Q.** How did the “HRG-induced Akt activation (log2)” value turn out when CCAGUAUUAACUGUGCUGCUGA was run?
**A.** Its value is 1.55 ± 0.32.

**Q.** UUCAUUCGGCUGUCCAGAUGUA was tested. Which “HRG-induced Akt activation (log2)” value did it give?
**A.** Its value is 1.48 ± 0.1.

**Q.** How did the “HRG-induced Akt activation (log2)” value turn out when CCUAGUAGGUGUCCAGUAAGUGU was run?
**A.** The value was 1.04 ± 0.63.

**Q.** AUCCUUGCUAUCUGGGUGCUA was tested. Which “HRG-induced Akt activation (log2)” value did it give?
**A.** Its value is 1.94 ± 0.15.

**Q.** With ACCGUGGCUUUCGAUUGUUACU as the sequence, how does the “HRG-induced Akt activation (log2)” value read?
**A.** Its value is 1.58 ± 0.11.

**Q.** Which “HRG-induced Akt activation (log2)” value does the source give for AAACCUGUGUUGUUCAAGAGUC here?
**A.** Its value is 0.883 ± 0.023.

**Q.** With UAGGACACAUGGUCUACUUCU as the sequence, how does the “HRG-induced Akt activation (log2)” value read?
**A.** The value was 1.04 ± 0.19.

**Q.** With AGGUGGUCCGUGGCGCGUUCGC as the sequence, how does the “HRG-induced Akt activation (log2)” value read?
**A.** Its value is 2.93 ± 0.32.

**Q.** For CUUUCAGUCAGAUGUUUGCUGC, which “HRG-induced Akt activation (log2)” value is on record?
**A.** The value was 1.67 ± 0.24.

**Q.** UCCUUCUGCUCCGUCCCCCAG was tested. Which “HRG-induced Akt activation (log2)” value did it give?
**A.** The value was 1.47 ± 0.042.

**Q.** How did the “HRG-induced Akt activation (log2)” value turn out when CAGCAGCACACUGUGGUUUGU was run?
**A.** Its value is 1.54 ± 0.46.

**Q.** UAGGUAGUUUCCUGUUGUUGGG was tested. Which “HRG-induced Akt activation (log2)” value did it give?
**A.** The value was 2.19 ± 0.23.

**Q.** How did the “HRG-induced Akt activation (log2)” value turn out when AGUGUGGCUUUCUUAGAGC was run?
**A.** The value was 0.799 ± 1.1.

**Q.** How did the “HRG-induced Akt activation (log2)” value turn out when AAAAGUAAUUGCGAGUUUUACC was run?
**A.** The value was 1.34 ± 0.091.

**Q.** How did the “HRG-induced Akt activation (log2)” value turn out when UAACUGGUUGAACAACUGAACC was run?
**A.** Its value is 1.93 ± 0.54.

**Q.** With UGCUAUGCCAACAUAUUGCCAU as the sequence, how does the “HRG-induced Akt activation (log2)” value read?
**A.** The value was 1.72 ± 0.27.

**Q.** AUGGUUCCGUCAAGCACCAUGG was tested. Which “HRG-induced Akt activation (log2)” value did it give?
**A.** Its value is 1.87 ± 0.22.

**Q.** How did the “HRG-induced Akt activation (log2)” value turn out when UCCCACCGCUGCCACCC was run?
**A.** The value was 1.98 ± 0.17.

**Q.** Which “HRG-induced Akt activation (log2)” value does the source give for UAUUGCACAUUACUAAGUUGCA here?
**A.** The value was 1.07 ± 0.077.

**Q.** How did the “HRG-induced Akt activation (log2)” value turn out when CCUCUGGGCCCUUCCUCCAG was run?
**A.** Its value is 0.844 ± 0.012.

**Q.** How did the “HRG-induced Akt activation (log2)” value turn out when GCCCAAAGGUGAAUUUUUUGGG was run?
**A.** The value was 1.33 ± 0.1.

**Q.** CAAAGCGCUUCCCUUUGGAGC was tested. Which “HRG-induced Akt activation (log2)” value did it give?
**A.** The value was 1.259 ± 0.0069.

**Q.** With GGAGACGCGGCCCUGUUGGAGU as the sequence, how does the “HRG-induced Akt activation (log2)” value read?
**A.** Its value is 1.33 ± 0.052.

**Q.** AGUAUUCUGUACCAGGGAAGGU was tested. Which “HRG-induced Akt activation (log2)” value did it give?
**A.** Its value is 1.96 ± 0.043.

**Q.** With UCAGUAAAUGUUUAUUAGAUGA as the sequence, how does the “HRG-induced Akt activation (log2)” value read?
**A.** Its value is 1.671 ± 0.0072.

**Q.** Which “HRG-induced Akt activation (log2)” value does the source give for UCGAGGAGCUCACAGUCUAGU here?
**A.** The value was 1.71 ± 0.23.

**Q.** With UCGGGGAUCAUCAUGUCACGAGA as the sequence, how does the “HRG-induced Akt activation (log2)” value read?
**A.** The value was 1.93 ± 0.17.

**Q.** With UCAGUGCAUGACAGAACUUGG as the sequence, how does the “HRG-induced Akt activation (log2)” value read?
**A.** The value was 1.09 ± 0.14.

**Q.** AACGCCAUUAUCACACUAAAUA was tested. Which “HRG-induced Akt activation (log2)” value did it give?
**A.** Its value is 1.14 ± 0.04.

**Q.** With UAAAGUGCUUAUAGUGCAGGUAG as the sequence, how does the “HRG-induced Akt activation (log2)” value read?
**A.** The value was 1.57 ± 0.035.

**Q.** With CCCGGAGCCAGGAUGCAGCUC as the sequence, how does the “HRG-induced Akt activation (log2)” value read?
**A.** Its value is 1.79 ± 0.39.

**Q.** How did the “HRG-induced Akt activation (log2)” value turn out when UGGAAGACUAGUGAUUUUGUUGU was run?
**A.** Its value is 2.15 ± 0.38.

**Q.** How did the “HRG-induced Akt activation (log2)” value turn out when UCAAGAGCAAUAACGAAAAAUGU was run?
**A.** The value was 1.91 ± 0.14.

**Q.** How did the “HRG-induced Akt activation (log2)” value turn out when CUCGGCGCGGGGCGCGGGCUCC was run?
**A.** Its value is 1.37 ± 0.015.

**Q.** Which “HRG-induced Akt activation (log2)” value does the source give for CAAAAAUCUCAAUUACUUUUGC here?
**A.** The value was 2.04 ± 0.028.

**Q.** ACAGGUGAGGUUCUUGGGAGCC was tested. Which “HRG-induced Akt activation (log2)” value did it give?
**A.** Its value is 1.32 ± 0.087.

**Q.** Which “HRG-induced Akt activation (log2)” value does the source give for UUAUAAAGCAAUGAGACUGAUU here?
**A.** The value was 1.5 ± 0.79.

**Q.** How did the “HRG-induced Akt activation (log2)” value turn out when CAGCAGCAAUUCAUGUUUUGAA was run?
**A.** Its value is 1.53 ± 0.33.

**Q.** How did the “HRG-induced Akt activation (log2)” value turn out when AGUGCCUGAGGGAGUAAGAGCCC was run?
**A.** The value was 1.72 ± 0.04.
